The record followed here is ChEMBL document CHEMBL5131422, “Neuroprotective evaluation of novel substituted 1,3,4-oxadiazole and aroylhydrazone derivatives” (Bioorg Med Chem Lett, 2022).

The nature of data set [1]: Toxicity in rat brain synaptosomes assessed as effect on reduced glutathione level at 40 uM measured after 1 hr relative to control. It is filed as subcellular, Synaptosome. The settings on record: in vitro.
Data set [2] has as its system Brain. Briefly: Neuroprotective activity against 6-OHDA-induced oxidative stress in rat brain synaptosomes assessed as GSH level at 40 uM relative to control. As to conditions: Synaptosome; call rule not given here. It is filed as functional, subcellular.
Data set [3] is described as follows: Toxicity in rat brain synaptosomes assessed as reduction in cell viability at 40 uM measured after 1 hr by MTT assay relative to control. It is filed as subcellular, Synaptosome. On the technique in general: Formazan colour is commonly taken as a measure of viable cells.
For data set [4], the system named is Brain. Briefly: Neuroprotective activity against 6-OHDA-induced oxidative stress in rat brain synaptosomes assessed as cell viability at 40 uM by MTT assay relative to control. The settings on record: Synaptosome. It is filed as functional, subcellular.
The target of data set [5] is T1, Amine oxidase [flavin-containing] A (Homo sapiens, UniProt P21397).
T1 sequence (P21397 whole entry): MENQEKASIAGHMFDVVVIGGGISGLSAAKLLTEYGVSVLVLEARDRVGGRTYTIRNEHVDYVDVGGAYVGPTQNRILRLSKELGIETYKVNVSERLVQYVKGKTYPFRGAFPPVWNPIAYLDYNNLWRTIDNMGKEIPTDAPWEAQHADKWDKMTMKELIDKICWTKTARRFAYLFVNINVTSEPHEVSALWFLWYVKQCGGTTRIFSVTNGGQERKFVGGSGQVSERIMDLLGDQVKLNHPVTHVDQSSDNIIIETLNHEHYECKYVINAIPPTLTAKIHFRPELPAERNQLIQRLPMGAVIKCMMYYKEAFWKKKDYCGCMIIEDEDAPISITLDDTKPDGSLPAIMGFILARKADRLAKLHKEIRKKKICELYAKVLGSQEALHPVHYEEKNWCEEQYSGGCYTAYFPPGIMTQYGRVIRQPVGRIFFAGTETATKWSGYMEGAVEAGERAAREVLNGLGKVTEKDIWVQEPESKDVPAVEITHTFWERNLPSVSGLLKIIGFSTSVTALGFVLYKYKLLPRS
Briefly: Inhibition of MAOA (unknown origin).

The structures appear in SMILES notation.

For the molecule `COc1ccc(C(=O)N/N=C/c2ccc(Cl)cc2Cl)cc1OC`, the Activity in data set [1] was 25%; in data set [2], 70%; in data set [3], 20%; in data set [4], 56%.

As to `COc1ccc(C(=O)N/N=C/c2ccc(Cl)cc2Cl)cc1O`, the Activity worked out at 25% in data set [1], 70% in data set [2], 20% in data set [3] and 56% in data set [4].

With `COc1ccc2[nH]cc(/C=N\NC(=O)c3c[nH]c4ccccc34)c2c1`, the Activity was found to be 25% in data set [1], 70% in data set [2], 20% in data set [3] and 56% in data set [4].

As for `COc1ccc2[nH]cc(/C=N\NC(=O)Cc3c[nH]c4ccccc34)c2c1`, the Activity in data set [1] was determined as 25%; in data set [2], 60%; in data set [3] it was 20%; in data set [4], 56%.

For the molecule `COc1ccc2[nH]cc(/C=N\NC(=O)c3ccc(Cl)cc3)c2c1`, the Activity in data set [1] stood at 25%; in data set [2] it was 60%; in data set [3], 20%; in data set [4], 67%.

On to `COc1ccc2[nH]cc(/C=N\NC(=O)c3snnc3C)c2c1`, for which the Activity was determined as 25% in data set [1], 60% in data set [2], 15% in data set [3] and 67% in data set [4].

For `c1ccc(-c2nnc(-c3c[nH]c4ccccc34)o2)cc1`, the Activity result in data set [1] was “Non-Toxic”; in data set [2], 70%; in data set [3], “Non-Toxic”; in data set [4], 56%. Moreover, in data set [5], the “inhibition (INH)” value is recorded as “Active”.

As to `Clc1ccc(-c2nnc(-c3ccccc3)o2)cc1`, the Activity entry in data set [1] was “Non-Toxic”; in data set [2], 60%; in data set [3] it was “Non-Toxic”; in data set [4] it was 66%. Also, the “inhibition (INH)” value in data set [5] is “Active”.

Turning to `COc1ccc2[nH]cc(/C=N\NC(=O)c3ccoc3)c2c1`, the Activity in data set [1] is 25%; in data set [2], 70%; in data set [3] it was 20%; in data set [4] it was 67%.
